The record followed here is EP1306084A1, “Compositions for the control of parasitic infestations in fish” (Alpharma AS, priority 1998, dated 1999).

In series [1] the test system is sea lice. Nature of the series: Oral treatment (coated feed / Akvaletter) of naturally sea lice infected salmon in minicages (Example 2). It counts as in vivo, Atlantic salmon (Salmo salar). On the procedure: The treatment dosage was 9 mg hexaflumuron per kg fish per day for 10 days. This is indicated by "Groups/Timepoints" in the figure; • Figure 2 relates to the trial in Example 2 that was carried out on Atlantic salmon (Salmo salar). […] The treatment dosage varied between 3 - 9 mg hexaflumuron and 9- 12 mg fluazuron per kg fish per day for 7 days. This is indicated by "Groups/Timepoints" in the diagram. […] The treated groups are compared to an untreated control group. The treatment dosage was 4 mg hexaflumuron per kg fish per day for 5 days. This is indicated by "Groups/Timepoints" in the figure. Cage 2 = controls, Cage 4-6 = treated groups, 16.6.97 = time point for sea transfer and 5.8.97= controls treated by bathing with deltamethrin; • Figure 4 relates to the trial described in Example 5, which was carried out on sea trout (Salmo trutta). […] The treated groups are compared with an untreated control group. The dosage for oral treatment was 4 mg hexaflumuron per kilo fish per day for 5 days, and 5 ppm hexaflumuron as a 30 minute bath treatment. This is indicated by "Groups/Timepoints" in the figure. Cage 1.4 = Controls, cage 1.3 = Oral treatment, cage 1.2 = Bath treatment. […] The treated groups are compared with an untreated control group, and one group that has been treated orally with teflubenzuron (10 mg/kg of teflubenzuron per kg fish per day for 7 days). The dosage for oral treatment was 5.6 mg hexaflumuron per kg fish per day for 7 days, and 5 ppm hexaflumuron as a 30 minute bath treatment. […] End of treatment: 22.10.97, Sea transfer: 23.10.97. T1 = 3 weeks post end of treatment, T2 = 5 weeks post end of treatment, T3 = 9 weeks post end of treatment, T4 = 12 weeks post end of treatment; • Figure 6 relates to the trial in Example 6 at time points 4-6, with the same trial parameters as for Figure 5. T5 = 15 weeks post end of treatment, T6 = 17 weeks post end of treatment. Cage 3 and 4 were treated by bath with deltamethrin after sea lice counting at T4 (12.01.98); • Figure 7 relates to the trial described in Example 7 where salmon were injected on 17.12.97 with two formulations (groups L and R, respectively) of hexaflumuron and a vaccine formulation without hexaflumuron (control). […] The vaccinated fish was transferred to sea water on 09.01.98; • Figure 8 summarises the trial of Example 8 where salmon smolts were injected with 9 different active substances on 08.07.98. Only results for Moxidectin (Mox.), Lufenuron (Luf.) and hexaflumuron in Apoject 1-Fural (Hex.Apo) and in animal oil (Hex.oil) are shown, and • Figure 9 summarises the trial described in Example 10 where salmon were injected on 03.12.97 with 3 different formulations of hexaflumuron (Hexa 1, Hexa 2 and Hexa 3). The fish were transferred to sea water at T0. […]

The nature of series [2]: Chemical analysis of muscle/skin after injection of hexaflumuron formulations (Example 8). It counts as in vivo, salmon smolt. Particulars: 50 mg/kg; for concentration at 5232 h: fish, muscle/skin, T8 (218 days after injection). How it is done: Tissue samples (muscle/skin) for chemical analysis were collected from five fish injected with the various hexaflumuron formulations at each sample point in time throughout the trial. […] At sea water transfer, the muscle/skin concentrations in the two other hexaflumuron groups (Apoject 1-Fural, animal oil) varied between 1 and 2.5 µg hexaflumuron/g tissue.

Series [3] is described as follows: Specific growth rate after sea transfer (Example 5). The format is in vivo, sea trout (Salmo trutta). Particulars: treated groups (oral, bath), after about 13 weeks; control group 0.37%. On the procedure: About 300 sea trout (Salmo trutta) of an average weight of 160 grams were divided into three groups of 100 fish each. One group was given oral treatment for one week before they were transferred to sea at a daily dosage of 4 mg hexaflumuron per kg fish for 5 days. The second group was treated with a bath treatment using a dosage of 5 ppm hexaflumuron for 30 minutes with a formulation containing 10% hexaflumuron, while the last group remained untreated. The treatments were carried out in fresh water during the last week before the fish were transferred to sea water. In the sea water, the fish were distributed into 3 mini-cages with 100 fish in each. The fish were then exposed to natural sea lice infection. Lice from 6-10 fish from each cage were counted every third week to assess whether there was any difference in the number of lice between the cages. At the end of the trial, i.e. about 13 weeks after the fish had been transferred to sea, the fish in each cage were weighed to check possible differences in SGR. The water temperature varied within the range of 12 - 22°C during the trial.
After 11 weeks there was no difference between the groups, but the number of lice was very low in all groups, which makes it difficult to determine the length of the protection period. […] The SGR was determined after about 13 weeks. […]

Where only a bound is given, the exact number is not on record here.

For the molecule `O=C(NC(=O)c1c(F)cccc1F)Nc1cc(Cl)c(OC(F)(F)C(F)F)c(Cl)c1` [hexaflumuron], the “reduced the number of lice as compared to the control treatment” value in series [1] (all groups treated with hexaflumuron, 3.0-9.0 mg per day, 7 days, 8.0 - 9.8°C) was “more than 70%”. The “reduction of sensitive chalimus and pre-adult stages” value in series [1] (groups given the highest dosage (9.0 mg per day, 7 days)) was above 99%; in series [1] (hexaflumuron groups, 3.0-9.0 mg per day, 7 days), above 90%. Also, in series [2] (T3, injected in an aqueous suspension (PBS)), the “hexaflumuron concentrations in muscle/skin” value was “below 0.02 µg per g”. Further, the concentration at 5232 h in series [2] (Apoject 1-Fural group) was 260 ng/g; in series [2] (animal oil group) it was 270 ng/g. In series [3], the SGR is on record as 0.84 - 0.98%.
